Paper PMC3789979, “Recruitment of a Cytoplasmic Chaperone Relay by the A2A Adenosine Receptor” (The Journal of Biological Chemistry, 2013)
pEC50: −log10 of the molar value. Where two headings read alike, the source gives them in different places.

What was measured:
[1] = system: cell surface levels of the A2A receptor, HEK293 cells stably expressing FS2-N-A2AR; test: Cell surface levels of the A2A receptor after 24 h HSP90 inhibitor treatment (acid-strip-sensitive [3H]ZM241385 binding); type: cell-based, human; conditions: for EC50 relative to affinity for binding to HSP90: EC50 higher than HSP90 affinity of refs 27, 28
Procedure: (§1) After 60 min at 23 °C, the reaction was terminated by rapid filtration over glass fiber filters (Whatman-GE Healthcare). […] Total receptor numbers were also determined by measuring the radioactivity released after dissolving the samples in 1 M NaOH ([22]). […] The number of viable cells was determined manually using a microscope counting chamber.
FIGURE 5. […] Error bars, S.D. Data are from four independent experiments done in triplicate. Statistical significance was calculated by analysis of variance followed by Dunnett's multiple-comparison post hoc test (*, p < 0.05; ***, p < 0.001). B, HEK293 cells stably expressing the tagged version G2S-N-A2AR were incubated with increasing concentrations of radicicol or 17-DMAG.

[2] = system: A2A receptor glycoforms, HEK293 cells stably expressing G2S-N-A2AR; test: Immunoblot of A2A receptor glycoforms after HSP90 inhibitor treatment; type: cell-based, human; conditions: saturating concentrations, 24 h
Procedure: (§2) Cells (1–5 × 10^7 cells) were harvested, and membranes were prepared as described previously ([14]). Membranes were solubilized as described above, followed by incubation with streptavidin-conjugated beads (G2S-N-A2A) or Strep-Tactin-Sepharose beads (FSt2-N-A2A) for 2 h at 4 °C. […] Thereafter, preequilibrated protein G-Sepharose beads were added and incubated for an additional 3 h at 4 °C. The beads were washed twice with 0.5 ml of solubilization buffer. […] A2A receptor and HSP90 were detected by immunoblotting using either anti-A2AR or anti-FLAG and anti-HSP90α (Abcam, Cambridge, UK) antibodies, respectively. As a control, membranes were harvested from untransfected HEK293 cells and processed in parallel. Immunoblots were quantified as described above. Where required, nitrocellulose membranes of primary and secondary antibody labeling were stripped by incubation with KSCN buffer (3 M KSCN, 150 mM KCl, 10 mM NaH2PO4, 100 mg/liter polyvinylpyrrolidone K30, 1-ethenylpyrrolidin-2-one) for 20 min at 23 °C to afford detection of additional proteins with the pertinent antibodies (i.e. anti-HSP90β, anti-HSC70, anti-HOP, anti-P23, and anti-CHIP, all from Abcam).
FIGURE 5. […] Statistical significance was calculated by analysis of variance followed by Dunnett's multiple-comparison post hoc test (*, p < 0.05; ***, p < 0.001). […]

[3] = system: A2A receptor-chaperone complexes in PC12 cells; test: Immunoprecipitation of endogenous A2A receptor from inhibitor-pretreated PC12 cells and immunoblotting; type: cell-based; conditions: for fully glycosylated, slowly migrating band of the A2A receptor: kifunensine 2 μM, bortezomib 10 nM
Procedure: as §2
(§3) FIGURE 9. Effect of HSP90 and/or proteasome inhibitors on the levels of endogenously expressed A2A receptor in PC12 cells. […] B, prior to membrane preparations of PC12 cells expressing the A2A receptor, cells were incubated in the absence and presence of 17-DMAG (2 μM), kifunensine (2 μM), and bortezomib (10 nM). […] After two washes, surface-bound radioligand was released by an acid strip and recovered in the supernatant. Assays were performed in quadruplicates. […] After membrane extraction and immunoprecipitation, aliquots (corresponding to 3 × 10^5 cells) of the immunoprecipitate were blotted for the A2A receptor (top), HSP90α, HSP70–1A, HOP, P23, and CHIP, as indicated. M, mature; C, core glycosylated.

[4] = system: A2A receptor-chaperone complexes, HEK293 cells stably expressing FS2-N-A2AR; test: Co-affinity precipitation of receptor-chaperone complexes after inhibitor treatment; type: cell-based, human; conditions: 17-DMAG 2 μM; for amount of HSP90 co-affinity-purified with the A2A receptor / association of HSP70 with the A2A receptor / higher glycosylated, mature form of the co-purified A2A receptor (ratio mature/core): 24 h, kifunensine 2 μM, bortezomib 10 nM
Procedure: as §2
FIGURE 7. […] B, immunoblots done as in A (top) were analyzed with ImageJ. […] C, the A2A receptor was immunoprecipitated from cells that had been incubated in the presence and absence of 17-DMAG (2 μM) as in A. The levels of HSC70 (C, top), HOP (C, second from top), P23 (C, third from top), and CHIP (C, bottom) were determined by immunoblotting and quantified with ImageJ.

[5] = system: endogenously expressed A2A receptor in PC12 cells; test: [3H]ZM241385 binding to membranes of inhibitor-pretreated PC12 cells; type: cell-based; conditions: for levels of functional (binding-competent) receptors: 24 h pretreatment, 2 μM, 10 nM [3H]ZM241385, PC12 membranes; for increase in steady state levels of active A2A receptors: PC12 cells, kifunensine 2 μM, bortezomib 10 nM
Procedure: as §1, §3

[6] = design: method as in PMID 20177028; conditions: administered to people; cited from earlier work

**Q.** Which “EC50 relative to affinity for binding to HSP90” value [1] does the source give for `C[C@@H]1C[C@H]2O[C@@H]2/C=C\C=C\C(=O)Cc2c(Cl)c(O)cc(O)c2C(=O)O1` [radicicol] here?
**A.** about 3 fold

**Q.** And the pEC50 ([1]; Homo sapiens, HEK293, read-out: EC50 for increase in cell surface levels of the A2A receptor)?
**A.** ~6.40

**Q.** And the “core glycosylated band of the A2A receptor (immunoblot)” value [2]?
**A.** increased accumulation

**Q.** For `O=C1N[C@@H]2[C@@H](O)[C@@H](O)[C@H](O)[C@@H](CO)N2C1=O` [kifunensine], which “fully glycosylated, slowly migrating band of the A2A receptor” value (shortened to “fully glycosylated”) ([3]; 24 h, 17-DMAG 2 μM) is on record?
**A.** increased the abundance

**Q.** What about the “amount of HSP90 co-affinity-purified with the A2A receptor” value (from here on “amount of HSP90 co-affinity-purified”) [4] of the same compound?
**A.** accumulation

**Q.** What about the “association of HSP70 with the A2A receptor” value (“association of HSP70” for short) [4] of the same compound?
**A.** accumulation

**Q.** What about the “higher glycosylated, mature form of the co-purified A2A receptor (ratio mature/core)” value (“higher glycosylated … (ratio mature/core)” for short) [4] of the same compound?
**A.** no significant increase

**Q.** What about the “levels of functional (binding-competent) receptors” value [5] of the same compound?
**A.** increased

**Q.** What about the “increase in steady state levels of active A2A receptors” value [5] of the same compound?
**A.** about 1.5 fold

**Q.** For `CC(C)C[C@H](NC(=O)[C@H](Cc1ccccc1)NC(=O)c1cnccn1)B(O)O` [bortezomib], which “fully glycosylated” value ([3]; 24 h, 17-DMAG 2 μM) is on record?
**A.** increased the abundance

**Q.** What about the “amount of HSP90 co-affinity-purified” value [4] of the same compound?
**A.** did not cause the accumulation

**Q.** And the “association of HSP70” value [4]?
**A.** did not cause the accumulation

**Q.** What about the “higher glycosylated … (ratio mature/core)” value [4] of the same compound?
**A.** significant increase

**Q.** What about the “increase in steady state levels of active A2A receptors” value [5] of the same compound?
**A.** about 1.5 fold

**Q.** With `CO[C@H]1/C=C\C=C(/C)C(=O)NC2=CC(=O)C(NCCN(C)C)=C(C[C@@H](C)C[C@H](OC)[C@H](O)[C@@H](C)/C=C(\C)[C@@H]1OC(N)=O)C2=O` [17-DMAG, 17-dimethylaminoethylamino-17-demethoxygeldanamycin] as the compound, how does the pEC50 ([1]; 24 h incubation, acid-strip-sensitive [3H]ZM241385 binding, read-out: EC50 for increase in cell surface levels of the A2A receptor) read?
**A.** ~6.00

**Q.** And the “EC50 relative to affinity for binding to HSP90” value [1]?
**A.** about 3 fold

**Q.** What about the “HSP90α, HSP70-1A and HSC70 recovered in the immunoprecipitate” value ([3]; 17-DMAG 2 μM, 24 h) of the same compound?
**A.** abundant amounts

**Q.** What about the “fully glycosylated” value ([3]; 24 h, 17-DMAG 2 μM) of the same compound?
**A.** increased the abundance

**Q.** And the “HOP recovered with the A2A receptor” value ([3]; pretreatment with DMAG)?
**A.** more

**Q.** And the “P23 and CHIP recovered with the A2A receptor” value ([3]; pretreatment with DMAG)?
**A.** less

**Q.** And the “core glycosylated band of the A2A receptor (immunoblot)” value [2]?
**A.** increased accumulation

**Q.** And the “associated CHIP” value [4]?
**A.** decline

**Q.** What about the “associated P23” value [4] of the same compound?
**A.** decrease in associated P23 (HSP90 co-chaperone), but this did not reach statistical significance

**Q.** What about the “co-precipitated HOP” value [4] of the same compound?
**A.** substantial increase

**Q.** And the “co-precipitated HSC70” value [4]?
**A.** substantial increase

**Q.** And the “amount of HSP90 co-affinity-purified” value [4]?
**A.** increased

**Q.** And the “association of HSP70” value [4]?
**A.** augmented

**Q.** And the “higher glycosylated … (ratio mature/core)” value [4]?
**A.** significant increase

**Q.** What about the half-life [6] of the same compound?
**A.** 24 h

**Q.** What about the “levels of functional (binding-competent) receptors” value [5] of the same compound?
**A.** increased
